According to patent US10294202B2, “Pyrrolidinones as herbicides” (FMC Corporation, priority 2013, dated 2019):

Assays:
barnyardgrass [1] = experiment: Test A pre-/postemergence herbicide test; type: in vivo, Echinochloa crus-galli
Method in brief: (§1)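 Planted in loam–sand blend; treated the same day preemergence by directed soil spray, while separately grown plants at one- to two-leaf stage got postemergence spray. Compared visually with untreated controls after approximately 10 days; 100 means complete control.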

crabgrass, large = experiment: Test A pre-/postemergence herbicide test; type: in vivo, Digitaria sanguinalis
Method in brief: as §1

giant foxtail = experiment: Test A pre-/postemergence herbicide test; type: in vivo, Setaria faberii
Method in brief: as §1

morningglory = experiment: Test A pre-/postemergence herbicide test; type: in vivo, Ipomoea spp.
Method in brief: as §1

pigweed = experiment: Test A pre-/postemergence herbicide test; type: in vivo, Amaranthus retroflexus
Method in brief: as §1

velvetleaf = experiment: Test A pre-/postemergence herbicide test; type: in vivo, Abutilon theophrasti
Method in brief: as §1

wheat = experiment: Test A pre-/postemergence herbicide test; type: in vivo, Triticum aestivum
Method in brief: as §1

corn = experiment: Test A pre-/postemergence herbicide test; type: in vivo, Zea mays
Method in brief: as §1

rice = experiment: Test B flooded paddy test; type: in vivo, Oryza sativa; details: Flood, scale of 0 to 100 where 0 is no effect and 100 is complete control
Method in brief: (§2)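 First, plants reach the 2-leaf stage; next, pots are flooded to 3 cm and compound is delivered into the water; finally, after 13 to 15 greenhouse days at constant depth, injury is graded visually from 0 to 100 against controls.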

sedge, umbrella = experiment: Test B flooded paddy test; type: in vivo, Cyperus difformis; details: Flood, scale of 0 to 100 where 0 is no effect and 100 is complete control
Method: (§3) Plant species in the flooded paddy test selected from rice (Oryza sativa), sedge, umbrella (small-flower umbrella sedge, Cyperus difformis), ducksalad (Heteranthera limosa), and barnyardgrass (Echinochloa crus-galli) were grown to the 2-leaf stage for testing. At time of treatment, test pots were flooded to 3 cm above the soil surface, treated by application of test compounds directly to the paddy water, and then maintained at that water depth for the duration of the test. Treated plants and controls were maintained in a greenhouse for 13 to 15 days, after which time all species were compared to controls and visually evaluated. Plant response ratings, summarized in Table B, are based on a scale of 0 to 100 where 0 is no effect and 100 is complete control. A dash (-) response means no test result.

ducksalad = experiment: Test B flooded paddy test; type: in vivo, Heteranthera limosa; details: Flood, scale of 0 to 100 where 0 is no effect and 100 is complete control
Method in brief: as §2

barnyardgrass [2] = experiment: Test B flooded paddy test; type: in vivo, Echinochloa crus-galli; details: Flood, scale of 0 to 100 where 0 is no effect and 100 is complete control
Method: as §3

[3] = Postemergence, 125 g ai/ha, 0 to 100 scale, 0 no effect, 100 complete control
[4] = Postemergence, 500 g ai/ha, 0 to 100 scale (0 no effect, 100 complete control)
[5] = Preemergence, 125 g ai/ha, visual rating on 0 to 100 scale (0 no effect, 100 complete control)
[6] = preemergence, 500 g ai/ha, 0 to 100 scale (0 no effect, 100 complete control)
[7] = preemergence, 500 g ai/ha, 0 to 100 scale
[8] = Postemergence, 1000 g ai/ha, 0 to 100 scale (0 no effect, 100 complete control)
[9] = Preemergence, 1000 g ai/ha, visual rating on 0 to 100 scale (0 no effect, 100 complete control), approx. 10 days
[10] = preemergence, 1000 g ai/ha, 0 to 100 scale

N#Cc1cccc(C2CNC(=O)C2C(=O)Nc2cccc(F)c2F)c1 (racemic) [Compound 73]
Plant response rating, Barnyardgrass (barnyardgrass [1]; [3]): 70 | Plant response rating, Barnyardgrass (barnyardgrass [1]; [4]): 80 | Barnyardgrass plant response rating (barnyardgrass [1]; [5]): 50 | Plant response rating, Barnyardgrass (barnyardgrass [1]; [6]): 80 | Plant response rating, Crabgrass, Large (crabgrass, large; [3]): 50 | Plant response rating, Crabgrass, Large (crabgrass, large; [4]): 80 | Crabgrass, Large plant response rating (crabgrass, large; [5]): 80 | Plant response rating, Crabgrass, Large (crabgrass, large; [7]): 90 | Plant response rating, Foxtail, Giant (giant foxtail; [3]): 30 | Plant response rating, Foxtail, Giant (giant foxtail; [4]): 80 | Foxtail, Giant plant response rating (giant foxtail; [5]): 80 | Plant response rating, Foxtail, Giant (giant foxtail; [7]): 90 | Plant response rating, Morningglory (morningglory; [3]): 0 | Plant response rating, Morningglory (morningglory; [4]): 20 | Morningglory plant response rating (morningglory; [5]): 0 | Plant response rating, Morningglory (morningglory; [7]): 0 | Plant response rating, Pigweed (pigweed; [4]): 0 | Pigweed plant response rating (pigweed; [5]): 0 | Plant response rating, Pigweed (pigweed; [7]): 0 | Plant response rating, Velvetleaf (velvetleaf; [3]): 0 | Plant response rating, Velvetleaf (velvetleaf; [4]): 30 | Velvetleaf plant response rating (velvetleaf; [5]): 0 | Plant response rating, Velvetleaf (velvetleaf; [7]): 0 | Plant response rating, Wheat (wheat; [3]): 0 | Plant response rating, Wheat (wheat; [4]): 0 | Wheat plant response rating (wheat; [5]): 0 | Plant response rating, Wheat (wheat; [7]): 0 | Plant response rating, Corn (corn; [3]): 0 | Plant response rating, Corn (corn; [4]): 0 | Corn plant response rating (corn; [5]): 0 | Plant response rating, Corn (corn; [7]): 0 | Plant response rating, Rice (rice; 250 g ai/ha): 0 | Plant response rating, Sedge, Umbrella (sedge, umbrella; 250 g ai/ha): 0 | Plant response rating, Ducksalad (ducksalad; 250 g ai/ha): 60 | Plant response rating, Barnyardgrass (barnyardgrass [2]; 250 g ai/ha): 0

O=C1NCC(c2ccc(F)c(F)c2)C1C(=O)Nc1ccc[nH]c1=O (racemic) [Compound 97]
Plant response rating, Barnyardgrass (barnyardgrass [1]; [3]): 0 | Plant response rating, Barnyardgrass (barnyardgrass [1]; [4]): 0 | Barnyardgrass plant response rating (barnyardgrass [1]; [5]): 0 | Plant response rating, Barnyardgrass (barnyardgrass [1]; [6]): 0 | Plant response rating, Crabgrass, Large (crabgrass, large; [3]): 0 | Plant response rating, Crabgrass, Large (crabgrass, large; [4]): 0 | Crabgrass, Large plant response rating (crabgrass, large; [5]): 0 | Plant response rating, Crabgrass, Large (crabgrass, large; [7]): 0 | Plant response rating, Foxtail, Giant (giant foxtail; [3]): 0 | Plant response rating, Foxtail, Giant (giant foxtail; [4]): 0 | Foxtail, Giant plant response rating (giant foxtail; [5]): 0 | Plant response rating, Foxtail, Giant (giant foxtail; [7]): 0 | Plant response rating, Morningglory (morningglory; [3]): 0 | Plant response rating, Morningglory (morningglory; [4]): 0 | Morningglory plant response rating (morningglory; [5]): 0 | Plant response rating, Morningglory (morningglory; [7]): 0 | Plant response rating, Pigweed (pigweed; [3]): 0 | Plant response rating, Pigweed (pigweed; [4]): 0 | Pigweed plant response rating (pigweed; [5]): 0 | Plant response rating, Pigweed (pigweed; [7]): 0 | Plant response rating, Velvetleaf (velvetleaf; [3]): 0 | Plant response rating, Velvetleaf (velvetleaf; [4]): 0 | Velvetleaf plant response rating (velvetleaf; [5]): 0 | Plant response rating, Velvetleaf (velvetleaf; [7]): 0 | Plant response rating, Wheat (wheat; [3]): 0 | Plant response rating, Wheat (wheat; [4]): 0 | Wheat plant response rating (wheat; [5]): 0 | Plant response rating, Wheat (wheat; [7]): 0 | Plant response rating, Corn (corn; [3]): 0 | Plant response rating, Corn (corn; [4]): 0 | Corn plant response rating (corn; [5]): 0 | Plant response rating, Corn (corn; [7]): 0 | Plant response rating, Rice (rice; 250 g ai/ha): 50 | Plant response rating, Sedge, Umbrella (sedge, umbrella; 250 g ai/ha): 75 | Plant response rating, Ducksalad (ducksalad; 250 g ai/ha): 70 | Plant response rating, Barnyardgrass (barnyardgrass [2]; 250 g ai/ha): 50

O=C1NCC(c2ccc(F)c(F)c2)C1C(=O)Nc1cccc(Cl)c1F (racemic) [Compound 104]
Plant response rating, Barnyardgrass (barnyardgrass [1]; [8]): 80 | Plant response rating, Barnyardgrass (barnyardgrass [1]; [9]): 80 | Plant response rating, Crabgrass, Large (crabgrass, large; [8]): 80 | Plant response rating, Crabgrass, Large (crabgrass, large; [9]): 90 | Plant response rating, Foxtail, Giant (giant foxtail; [8]): 70 | Plant response rating, Foxtail, Giant (giant foxtail; [9]): 90 | Plant response rating, Morningglory (morningglory; [8]): 0 | Plant response rating, Morningglory (morningglory; [9]): 0 | Plant response rating, Pigweed (pigweed; [8]): 0 | Plant response rating, Pigweed (pigweed; [9]): 0 | Plant response rating, Velvetleaf (velvetleaf; [8]): 10 | Plant response rating, Velvetleaf (velvetleaf; [9]): 0 | Plant response rating, Wheat (wheat; [8]): 0 | Plant response rating, Wheat (wheat; [9]): 20 | Plant response rating, Corn (corn; [8]): 0 | Plant response rating, Corn (corn; [9]): 20 | Plant response rating, Rice (rice; 1000 g ai/ha): 0 | Plant response rating, Sedge, Umbrella (sedge, umbrella; 1000 g ai/ha): 0 | Plant response rating, Ducksalad (ducksalad; 1000 g ai/ha): 95 | Plant response rating, Barnyardgrass (barnyardgrass [2]; 1000 g ai/ha): 70

O=C1NCC(c2ccc(F)c(F)c2)C1C(=O)Nc1cccnc1F (racemic) [Compound 105]
Plant response rating, Barnyardgrass (barnyardgrass [1]; [8]): 90 | Plant response rating, Barnyardgrass (barnyardgrass [1]; preemergence, 1000 g ai/ha, 0 to 100 scale (0 no effect, 100 complete control)): 90 | Plant response rating, Crabgrass, Large (crabgrass, large; [8]): 90 | Plant response rating, Crabgrass, Large (crabgrass, large; [10]): 90 | Plant response rating, Foxtail, Giant (giant foxtail; [8]): 80 | Plant response rating, Foxtail, Giant (giant foxtail; [10]): 90 | Plant response rating, Morningglory (morningglory; [8]): 10 | Plant response rating, Morningglory (morningglory; [10]): 0 | Plant response rating, Pigweed (pigweed; [8]): 0 | Plant response rating, Pigweed (pigweed; [10]): 0 | Plant response rating, Velvetleaf (velvetleaf; [8]): 10 | Plant response rating, Velvetleaf (velvetleaf; [10]): 0 | Plant response rating, Wheat (wheat; [8]): 0 | Plant response rating, Wheat (wheat; [10]): 0 | Plant response rating, Corn (corn; [8]): 0 | Plant response rating, Corn (corn; [10]): 0 | Plant response rating, Rice (rice; 1000 g ai/ha): 10 | Plant response rating, Sedge, Umbrella (sedge, umbrella; 1000 g ai/ha): 0 | Plant response rating, Ducksalad (ducksalad; 1000 g ai/ha): 90 | Plant response rating, Barnyardgrass (barnyardgrass [2]; 1000 g ai/ha): 25
